Square brackets hold non-standard residues; d marks the D form. Ends that are not written are not given here. Arg(Me2s) = CN=C(NC)NCCC[C@H](N)C(=O)O
How the values were obtained:
[1] = biological target: T1, Jmjd6 (Homo sapiens, UniProt Q6NYC1); assay: Standard assay for Jmjd6 oxygenase activity: peptide hydroxylation by MALDI-TOF MS; format: biochemical; settings: for activity (hydroxylation of LUC7-like2 peptides): Table 4, standard assay conditions; for mass shift relative to un-reacted peptide: incubation with Jmjd6, oxygen, ascorbate, Fe(II), 2OG, MALDI-TOF MS
Text: All peptides tested as potential substrates of Jmjd6 were synthesised in-house by a Intavis MultiPep automated multiple synthesiser, using Tentagel amide resin (Intavis). Fluorenylmethoxycarbonyl (Fmoc)-protected amino acids were coupled with N,N′-diisopropylcarbodiimide (DIC)/1-hydroxybenzotriazole (HOBt). Cleavage of the completed peptides from the resin used CF3CO2H (TFA)/[…]. Predicted masses were confirmed by MALDI-TOF mass spectrometry. Standard assay conditions were used and are described above.
To determine whether U2AF65, CROP and LUC7-like2 were substrates of Jmjd6, multiple peptides were synthesized based on the RS domains of these proteins (FIG. 8). Initial peptides were synthesized with dimethylated arginine residues because it was speculated that Jmjd6 may be an arginine demethylase (FIG. 9). To determine whether any of these peptides were Jmjd6 substrates, incubations were carried out in the presence of oxygen, ascorbate, Fe(II) and 2OG; and peptide modifications were analyzed by MALDI-TOF MS.

[2] = biological target: T1, Jmjd6; assay: biochemical; format: biochemical; settings: for inhibitory effect on Jmjd6 activity / rank of inhibition of Jmjd6 activity (in words): 100 μM inhibitor, substrate peptide d; for hydroxylation of peptide d, as observed by MALDI: 100 μM compound added to assay; for enhancers of Jmjd6 activity (statement): chelating agents
Procedure: (§1) Standard assays consisted of the substrate mixture: peptide (100 μM), 2OG (500 μM), ascorbate (100 μM) in Tris (50 mM, pH 7.5); and the enzyme mixture: FeNH4SO4 (100 μM) and Jmjd6 (10 μM) in Tris (50 mM, pH 7.5). The reaction was initiated by mixing the substrate and enzyme mixtures and incubating at 37° C. for 30-60 minutes. The reaction was quenched by adding TFA to a final concentration of 0.1% and incubating on ice. Hydroxylation of the peptide was analysed by a MALDI TOF micro MX mass spectrometer (Waters Micromass); where the assay mixture (1 μL), along with α-cyano-4-hydroxycinnamic acid MALDI (CHCA) matrix in 60% acetonitrile/0.1% TFA (1 μL), was spotted directly onto the target plate. To determine whether modification of peptide was Jmjd6-dependent assays were performed omitting either 2OG or Fe(II). To determine whether Jmjd6 was inhibited by N-oxaloylglycine (NOG), NOG (24 mM) was added to the substrate component of the assay system.
To determine the pH profile of Jmd6 standard peptide assays were performed over a pH range of 6 to 9. Buffers used were piperazine-N,N′-bis(ethanesulfonic acid) (PIPES) (pH 6.0 and 6.5), 4-(2-hydroxyethyl)-1-piperazineethanesulfonic acid (HEPES) (pH 7.0 to 8.0) and N,N-bis(2-hydroxyethyl) glycine (BICINE) (pH 8.5 and 9.0). Inhibition assays were performed under identical conditions as described for the standard assays except either succinate (1 mM) or fumarate (1 mM) were included in the substrate mixture.
A control without inhibitor was included as a reference.

[3] = system: full-length Jmjd6 (SEQ ID NO:1), Jmjd6 residues 1 to 343, Jmjd6 residues 25 to 338; settings: peptide d 100 μM; FIGS. 18 and 19
Procedure: as §1

[4] = succinate (1 mM) or fumarate (1 mM) in substrate mixture

Compound: 20 (NPKKSKSREHRR) [No 20]
- activity (hydroxylation of LUC7-like2 peptides) [1]: double

Compound: 21 (NPKKSKSKEHRR) [No 21]
- activity (hydroxylation of LUC7-like2 peptides) [1]: double

Compound: 22 (NPKKSKSKEHKK) [No 22]
- activity (hydroxylation of LUC7-like2 peptides) [1]: double

Compound: 23 (NPKRSRSKEHKK) [No 23]
- activity (hydroxylation of LUC7-like2 peptides) [1]: yes

Compound: 24 (NPKRSRSREHKK) [No 24]
- activity (hydroxylation of LUC7-like2 peptides) [1]: yes

Compound: O=C(O)c1c[nH]c2c(ccc3cccnc32)c1=O [FG0041]
- inhibitory of Jmjd6 lysyl hydroxylase activity (statement) [2]: inhibitory
- inhibitory effect on Jmjd6 activity [2]: ~50%

Compound: O=C(O)CNC(=O)c1nc(Cl)c2ccccc2c1O [FG2216]
- inhibitory of Jmjd6 lysyl hydroxylase activity (statement) [2]: inhibitory
- inhibitory effect on Jmjd6 activity [2]: ~50%

Compound: O=C(O)CNC(=O)C(=O)O [NOG, N-oxalylglycine]
- inhibitory of Jmjd6 lysyl hydroxylase activity (statement) [2]: inhibitory
- inhibition of hydroxylation of peptide d, as observed by MALDI ([2]; 12 mM NOG in the assay mixture): completely inhibited
- inhibition of the +16 mass shift in peptide d ([2]; NOG 24 mM added to substrate component, FIG. 11 legend 120 mM): completely inhibited
- inhibition at 100 µM ([2]; read-out: inhibitory effect on Jmjd6 activity): < 20%

Compound: O=C(O)/C=C/C(=O)O [fumarate]
- inhibitory of Jmjd6 lysyl hydroxylase activity (statement) [2]: inhibitory
- rank of inhibition of Jmjd6 activity (in words) [2]: most potent inhibitors
- inhibition of the +16 mass shift in peptide d [2, 4]: completely inhibited

Compound: O=c1c(-c2ccc(O)cc2)coc2cc(O)cc(O)c12 [genistein]
- inhibitory of Jmjd6 lysyl hydroxylase activity (statement) [2]: inhibitory

Compound: O=C(O)c1ccnc(C(=O)O)c1 [pyridine-2,4-dicarboxylic acid]
- inhibitory of Jmjd6 lysyl hydroxylase activity (statement) [2]: inhibitory
- rank of inhibition of Jmjd6 activity (in words) [2]: most potent inhibitors

Compound: O=C(O)c1ccc(C(=O)O)nc1 [pyridine-2,5-dicarboxylic acid]
- hydroxylation of peptide d, as observed by MALDI [2]: 100%
- enhancers of Jmjd6 activity (statement) [2]: Enhancers

Compound: O=C(O)c1cccc(C(=O)O)n1 [pyridine-2,6-dicarboxylic acid]
- hydroxylation of peptide d, as observed by MALDI [2]: 100%
- enhancers of Jmjd6 activity (statement) [2]: Enhancers

Compound: O=C(O)CCC(=O)O [succinate]
- inhibitory of Jmjd6 lysyl hydroxylase activity (statement) [2]: inhibitory
- rank of inhibition of Jmjd6 activity (in words) [2]: most potent inhibitors
- inhibition of the +16 mass shift in peptide d [2, 4]: completely inhibited

Compound: NPKRSRSR(Me2sym))EHRRHRSR (chain 1 NPKRSRS[Arg(Me2s)]; also: chains 1 and 2 form one continuous peptide) [No 1]
- mass shift relative to un-reacted peptide [1]: +16

Compound: NPKRSRSREHRR [No 12]
- hydroxylation of peptide d by truncated and full-length Jmjd6 [3]: hydroxylated

Compound: SHSRSR(Me2sym)SRDRKRRSRS ({Ser-H2N-Ser-Arg-Ser-(R(Me2sym))}-SRDRKRRSRS) [No 10]
- mass shift relative to un-reacted peptide [1]: +16

Compound: SHSRSRSR(Me2sym)DRKRRSRS (chain 1 SHSRSRS[Arg(Me2s)]; also: chains 1 and 2 form one continuous peptide) [No 9]
- mass shift relative to un-reacted peptide [1]: +16
